Source: US20150265661A1, “PREBIOTIC EFFECT OF SIALYLLACTOSE” (Trustees of Boston College, priority 2012, published 2015)

Columns and labels:
[1] = test system: Bifidobacteria sp. (ten strains of Table 2); assay: Growth (OD 600 nm) and pH of bacterial strains in ZMB1 with oligosaccharide as sole carbon source; assay type: cell-based, Bifidobacterium longum, Bifidobacterium infantis; settings: for utilization as a primary carbon source by ten different Bifidobacteria: concentrations indicated in FIGS. 4 and 5; for numbers of bifidobacteria: in vitro fermentation, vs control; for prebiotic effects on Bifidobacteria strains: sialyllactose alone, FIG. 5
[2] = test system: Clostridium perfringens ATCC 13124; assay type: cell-based; settings: 48 h, sole carbon source, FIG. 4
[3] = test system: Escherichia coli W3110; assay: Growth (OD 600 nm) and pH of bacterial strains in ZMB1 with oligosaccharide as sole carbon source; assay type: cell-based; settings: 48 h, FIG. 4

Compound | utilization as a primary carbon source by ten different Bifidobacteria [1] | numbers of bifidobacteria [1] | prebiotic effects on Bifidobacteria strains [1] | growth of C. perfringens [2] | pH in the culture of C. perfringens [2] | growth of E. coli [3] | pH in the culture of E. coli [3] | growth of the Bifidobacteria sp. ([1]; 48 h, sole carbon source (2'-FL 2 g/L, 3-FL 2 g/L, LDFT 1 g/L), vs control without substrate) | pH in the culture of Bifidobacteria ([1]; 48 h, sole carbon source, vs control without substrate)
CC(=O)N[C@H]1[C@H]([C@H](O)[C@H](O)CO)O[C@@](O[C@H]2[C@@H](O)[C@@H](CO)O[C@@H](O[C@H]3[C@H](O)[C@@H](O)C(O)O[C@@H]3CO)[C@@H]2O)(C(=O)O)C[C@@H]1O (some centres unmarked) [3′-SL, 3′-sialyllactose] | could utilize | significantly higher | showed prebiotic effects on some Bifidobacteria strains |  |  |  |  |  | 
CC(=O)N[C@H]1[C@H]([C@H](O)[C@H](O)CO)O[C@@](OC[C@H]2O[C@@H](O[C@H]3[C@H](O)[C@@H](O)[C@H](O)O[C@@H]3CO)[C@H](O)[C@@H](O)[C@H]2O)(C(=O)O)C[C@@H]1O [6′-SL, 6′-sialyllactose] | could utilize | significantly higher | showed prebiotic effects on some Bifidobacteria strains |  |  |  |  |  | 
lactodifucotetraose [LDFT] | could utilize | significantly higher |  | no significant increase | no significant increase on its growth and decrease in pH | no significant increase | no significant increase on its growth and decrease in pH | significantly increase | decrease the pH
